Laboratory results from patent publication US7435837B2, “Dihydrobenzofuranyl alkanamine derivatives and methods for using same” (Wyeth, priority 2003, dated 2008).

What was measured:
[1] = target: T1, human 5-hydroxytryptamine-2C (h5-HT2C) receptor (Homo sapiens, UniProt P28335); experiment: [125I]DOI binding to membranes of CHO cells expressing the human 5-HT2C receptor; settings: [125I]DOI radioligand, CHO cell membranes, room temperature 60 min; read-out: 5-HT2C Affinity Ki
T1 construct: expressed in transfected cells; host or cells: CHO (Chinese Hamster Ovary) cells; membranes
T1 sequence (P28335 33-458): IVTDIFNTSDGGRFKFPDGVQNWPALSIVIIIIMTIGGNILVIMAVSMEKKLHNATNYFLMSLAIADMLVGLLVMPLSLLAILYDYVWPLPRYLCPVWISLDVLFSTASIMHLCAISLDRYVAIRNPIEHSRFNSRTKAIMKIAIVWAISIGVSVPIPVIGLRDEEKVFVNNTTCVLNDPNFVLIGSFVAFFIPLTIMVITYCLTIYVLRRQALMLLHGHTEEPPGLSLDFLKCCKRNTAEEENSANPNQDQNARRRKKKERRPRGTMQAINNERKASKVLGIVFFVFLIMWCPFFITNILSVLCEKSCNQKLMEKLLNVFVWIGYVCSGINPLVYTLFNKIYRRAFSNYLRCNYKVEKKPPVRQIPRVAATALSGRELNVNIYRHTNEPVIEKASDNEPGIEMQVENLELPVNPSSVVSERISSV

human 5-HT2C receptor = target: T2, human 5-HT2C receptor (Homo sapiens, UniProt P28335); experiment: 5-HT2C receptor-stimulated calcium mobilization (FLIPR) in CHO cells; type: cell-based; settings: for Emax: CHO, percentage of the response observed with a maximally effective concentration of 5-HT, read-out: 5-HT2C Function Emax (%); for EC50: calcium mobilization, CHO cells stably expressing human 5-HT2C, read-out: 5-HT2C Function EC50;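 on all read-outs here: Fluo-3-AM fluorescence read on FLIPR every 1 s, agonist added after 10 baseline reads, response taken as peak minus lowest raw fluorescence count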
T2 sequence (P28335 33-458): T1 sequence (P28335 33-458)

Row | Ki [1] [nM] | Emax (human 5-HT2C receptor) [%] | EC50 (human 5-HT2C receptor) [nM] | SMILES
1 | 38 | 80 | 271 | COc1cccc(-c2cc(C(F)(F)F)cc3c2OC(CN)C3)c1OC (racemic) [Example 331, (±)-{[7-(2,3-dimethoxyphenyl)-5-(trifluoromethyl)-2,3-dihydro-1-benzofuran-2-yl]methyl}amine]
2 | 13 | 100 | 70 | NCC1Cc2cccc(-c3cccc(F)c3)c2O1 (racemic) [Example 64, (±)-1-[7-(3-fluorophenyl)-2,3-dihydro-1-benzofuran-2-yl]methanamine]
3 | 23 | 80 | 224 | COc1cc2c(c(-c3cc(Cl)ccc3OC)c1)OC(CN)C2 (racemic) [Example 372, (±)-{[7-(5-chloro-2-methoxyphenyl)-5-methoxy-2,3-dihydro-1-benzofuran-2-yl]methyl}amine]
4 | 8 | 80 | 396 | Cc1ccc(-c2cc(F)cc3c2OC(CN)C3)cc1 (racemic) [Example 201, (±)-{[5-fluoro-7-(4-methylphenyl)-2,3-dihydro-1-benzofuran-2-yl]methyl}amine]
5 | 13 | 80 | 874 | CNCC1Cc2cc(Cl)cc(-c3ccsc3)c2O1 (single isomer, unassigned; (+)) [Example 93, (+)-N-[(5-chloro-7-thien-3-yl-2,3-dihydro-1-benzofuran-2-yl)methyl]-N-methylamine]
6 | 275 | 60 | 2920 | NCC1Cc2cc(-c3ccccc3)cc(-c3ccccc3)c2O1 (racemic) [Example 344, (±)-[(5,7-diphenyl-2,3-dihydro-1-benzofuran-2-yl)methyl]amine]
7 | 1 | 100 | 44 | Cc1cccc(-c2cc(C)cc3c2OC(CN)C3)c1 (racemic) [Example 289, (±)-{[7-(3-methylphenyl)-5-methyl-2,3-dihydro-1-benzofuran-2-yl]methyl}amine]
8 | 17 | 60 | 903 | Cc1cccc(-c2cc(F)cc3c2OC(CN)C3)c1 (racemic) [Example 198, (±)-{[5-fluoro-7-(3-methylphenyl)-2,3-dihydro-1-benzofuran-2-yl]methyl}amine]
9 | 2.5 | 90 | 72 | NCC1Cc2cc(Cl)cc(-c3ccc(F)cc3F)c2O1 (racemic) [Example 250, (±)-{[5-chloro-7-(2,4-difluorophenyl)-2,3-dihydro-1-benzofuran-2-yl]methyl}amine]
10 | 21 | 60 | 838 | Cc1ccccc1-c1ccc(F)c2c1OC(CN)C2 (racemic) [Example 99, (±)-1-[4-fluoro-7-(2-methylphenyl)-2,3-dihydro-1-benzofuran-2-yl]methanamine]
11 | 10 | 70 | 531 | CNCC1Cc2cc(F)cc(-c3ccccc3C)c2O1 (single isomer, unassigned; (-)) [Example 441, (−)-{[5-fluoro-7-(2-methylphenyl)-2,3-dihydro-1-benzofuran-2-yl]methyl}methylamine]
12 | 3 | 90 | 22 | CNCC1Cc2cccc(-c3ccccc3Cl)c2O1 (racemic) [Example 409, (±)-[(N-methyl-1-[7-(2-chlorophenyl)-2,3-dihydro-1-benzofuran-2-yl]methanamine]
13 | 11 | 70 | 225 | CNCC1Cc2cc(C)cc(-c3cccc(C)c3)c2O1 (racemic) [Example 478, (±)-{[7-(3-methylphenyl)-5-methyl-2,3-dihydro-1-benzofuran-2-yl]methyl}methylamine]
14 | 5 | 100 | 9.6 | CC(C)c1cccc2c1OC(CN)C2 (racemic) [Example 18, (±)-(7-isopropyl-2,3-dihydro-1-benzofuran-2-yl)methylamine]
15 | 4.7 | 90 | 6 | COc1cccc(-c2cccc3c2OC(CN)C3)c1OC (single isomer, unassigned; (-)) [Example 156]
16 | 12 | 80 | 369 | NCC1Cc2cc(F)cc(-c3ccc(Cl)cc3)c2O1 (racemic) [Example 200, (±)-{[5-fluoro-7-(4-chlorophenyl)-2,3-dihydro-1-benzofuran-2-yl]methyl}amine]
17 | 2 | 100 | 1 | Cc1ccc(Cl)cc1-c1cccc2c1OC(CN)C2 (racemic) [Example 168, (±)-{[7-(5-chloro-2-methylphenyl)-2,3-dihydro-1-benzofuran-2-yl]methyl}amine]

Row | Ki [1] [nM] | Emax (human 5-HT2C receptor) [%] | EC50 (human 5-HT2C receptor) [nM] | SMILES
18 | 1.3 | 90 | 30 | NCC1Cc2cc(F)cc(-c3c(F)cccc3F)c2O1 (racemic) [Example 226, (±)-{[7-(2,6-difluorophenyl)-5-fluoro-2,3-dihydro-1-benzofuran-2-yl]methyl}amine]
19 | 28 | 80 | 590 | NCC1Cc2cc(C(F)(F)F)cc(-c3ccsc3)c2O1 (racemic) [Example 342, (±)-{[7-thien-3-yl-5-(trifluoromethyl)-2,3-dihydro-1-benzofuran-2-yl]methyl}amine]
20 | 1 | 90 | 49 | Cc1ccccc1-c1cc(C(C)C)cc2c1OC(CN)C2 (racemic) [Example 307, (±)-{[5-isopropyl-7-(2-methylphenyl)-2,3-dihydro-1-benzofuran-2-yl]methyl}amine]
21 | 0.27 | 100 | 0.8 | CNCC1Cc2cc(F)cc(-c3cc(Cl)ccc3Cl)c2O1 (single isomer, unassigned; (+)) [Example 450, (+)-{[5-fluoro-7-(2,5-dichlorophenyl)-2,3-dihydro-1-benzofuran-2-yl]methyl}methylamine]
22 | 0.2 | – | – | Cc1cc2c(c(-c3c(Cl)cccc3Cl)c1)OC(CN)C2 (single isomer, unassigned; (-)) [Example 303, (−)-{[7-(2,6-dichlorophenyl)-5-methyl-2,3-dihydro-1-benzofuran-2-yl]methyl}amine]
23 | 20 | – | – | Cc1cccc(C)c1-c1cccc2c1CC(CN)O2 (single isomer, unassigned; (-)) [Example 127, (−)-1-[4-(2,6-dimethylphenyl)-2,3-dihydro-1-benzofuran-2-yl]methanamine]
24 | 185 | – | – | NCC1Cc2cccc(Nc3cccc(C(F)(F)F)c3)c2O1 (racemic) [Example 184, (±)-N-2-(aminomethyl)-N-[3-(trifluoromethyl)phenyl]-2,3-dihydro-1-benzofuran-7-amine]
25 | 43 | – | – | NCC1Cc2cccc(-c3ccc4ccccc4c3)c2O1 (racemic) [Example 39, (±)-1-[7-(2-naphthyl)-2,3-dihydro-1-benzofuran-2-yl]methanamine]
26 | 310 | – | – | NCC1Cc2cccc(Nc3ccc(F)cc3)c2O1 (racemic) [Example 178, (±)-N-[2-(aminomethyl)-2,3-dihydro-1-benzofuran-7-yl]-N-(4-fluorophenyl)amine]
27 | 246 | – | – | NCC1Cc2cccc(Nc3ccc(F)c(Cl)c3)c2O1 (racemic) [Example 193, (±)-N-[2-(aminomethyl)-2,3-dihydro-1-benzofuran-7-yl]-N-(3-chloro-4-fluorophenyl)amine]
28 | 60 | – | – | NCC1Cc2c(F)ccc(-c3ccccc3)c2O1 (racemic) [Example 98, (±)-1-(4-fluoro-7-phenyl-2,3-dihydro-1-benzofuran-2-yl)methanamine]
29 | 84 | – | – | NCC1Cc2cc(C(F)(F)F)cc(-c3ccccc3C(F)(F)F)c2O1 (racemic) [Example 317, (±)-{[5-(trifluoromethyl)-7-(2-(trifluoromethyl)phenyl)-2,3-dihydro-1-benzofuran-2-yl]methyl}amine]
30 | 159 | – | – | COc1ccc(Nc2cccc3c2OC(CN)C3)cc1C (racemic) [Example 185, (±)-N-[2-(aminomethyl)-2,3-dihydro-1-benzofuran-7-yl]-N-(4-methoxy-3-methylphenyl)amine]
31 | 0.3 | – | – | NCCC1Cc2ccc(Cl)c(-c3ccccc3Cl)c2O1 (racemic) [Example 552, (±)-{2-[6-chloro-7-(2-chlorophenyl)-2,3-dihydro-1 benzofuran-2-yl]ethyl}amine]
32 | 91 | – | – | COc1ccc(-c2cccc3c2OC(CN)C3)c(OC)c1 (single isomer, unassigned; (+)) [Example 145, (+)-1-[7-(2,4-dimethoxyphenyl)-2,3-dihydro-1-benzofuran-2-yl]methanamine]
33 | 4740 | – | – | CNCC1Cc2cc(C(F)(F)F)cc(-c3cc(C(F)(F)F)cc(C(F)(F)F)c3)c2O1 (racemic) [Example 527, (±)-{[7-[3,5-bis(trifluoromethyl)phenyl]-5-(trifluoromethyl)-2,3-dihydro-1-benzofuran-2-yl]methyl}methylamine]
34 | 106 | – | – | NCC1Cc2cc(Cl)cc(C3CCCCC3)c2O1 (racemic) [Example 11, (±)-(5-chloro-7-cyclohexyl-2,3-dihydro-1-benzofuran-2-yl)methylamine]
